Data published in patent publication US9695155B2, “Herbicidal substituted pyrimidinyloxy benzene compounds” (E. I. DU PONT DE NEMOURS AND COMPANY, priority 2013, dated 2017).

Experiments:
ragweed = test: Test C postemergence; format: in vivo, Ambrosia elatior
Procedure, shortened: (§1)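 Plants were kept under greenhouse conditions for 13–15 days following spray. Pre-emergent application went to soil (loam–sand), post-emergent to foliage at 1–4 leaves. Evaluation: visual, percent control against untreated checks.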

large (Lg) crabgrass [1] = test: Test C postemergence; format: in vivo, Digitaria sanguinalis
Procedure, shortened: as §1

wild oat = test: Test C postemergence; format: in vivo, Avena fatua
Procedure, shortened: as §1

Italian ryegrass = test: Test C postemergence; format: in vivo, Lolium multiflorum
Procedure, shortened: as §1

oilseed rape = test: Test C postemergence; format: in vivo, Brassica napus
Procedure, shortened: as §1

yellow nutsedge = test: Test C preemergence; format: in vivo, Cyperus esculentus; details: for Nutsedge, Yellow plant response rating: preemergence
Procedure, shortened: as §1

pigweed = test: Test A preemergence; format: in vivo, Amaranthus retroflexus
Procedure, shortened: (§2)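 Visual injury scored 0–100 (100 = complete control) against untreated controls about 10 days after treatment in a greenhouse. Test chemicals, formulated with surfactant in non-phytotoxic solvent, were sprayed on soil preemergence or on 2-10 cm, one- to two-leaf plants postemergence.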

lambsquarters = test: Test C postemergence; format: in vivo, Chenopodium album
Procedure, shortened: as §1

morningglory = test: Test C postemergence; format: in vivo, Ipomoea coccinea
Procedure, shortened: as §1

rice = test: Test B flooded paddy test; format: in vivo, Oryza sativa; details: Flood, 250 g ai/ha, 0 to 100 scale where 0 is no effect and 100 is complete control
Procedure, shortened: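 Evaluation is visual, against untreated controls, 13 to 15 days after treatment. Before treatment, plants reached the 2-leaf stage; pots were then flooded 3 cm deep, compound was added to the water, and that level was maintained. Ratings run 0 to 100, with 100 meaning complete control.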

barnyardgrass = test: Test A preemergence; format: in vivo, Echinochloa crus-galli
Procedure, shortened: as §2

giant foxtail = test: Test C preemergence; format: in vivo, Setaria faberii; details: for Foxtail, Giant plant response rating: preemergence
Procedure, shortened: as §1

large (Lg) crabgrass [2] = test: Test A postemergence; format: in vivo, Digitaria sanguinalis; details: 0 to 100 scale where 0 is no effect and 100 is complete control
Procedure, shortened: as §2

corn = test: Test A preemergence; format: in vivo, Zea mays; details: Zea mays, pre-emergence, 240 h, 0 to 100 scale where 0 is no effect and 100 is complete control
Procedure, shortened: as §2

large (Lg) crabgrass [3] = test: Test A preemergence; format: in vivo, Digitaria sanguinalis; details: Digitaria sanguinalis, pre-emergence, 240 h, 0 to 100 scale where 0 is no effect and 100 is complete control
Procedure, shortened: as §2

[4] = Postemergence, 31 g ai/ha, scale 0 to 100 (0 no effect, 100 complete control), 13 to 15 days
[5] = Postemergence, 62 g ai/ha, scale 0 to 100 (0 no effect, 100 complete control)
[6] = 16 g ai/ha, scale 0 to 100 (0 no effect, 100 complete control)
[7] = 62 g ai/ha, scale 0 (no effect) to 100 (complete control)
[8] = 125 g ai/ha, scale 0 (no effect) to 100 (complete control)
[9] = Preemergence, 31 g ai/ha, scale 0 to 100, 0 no effect, 100 complete control
[10] = 125 g ai/ha, 0 to 100 scale where 0 is no effect and 100 is complete control
[11] = 500 g ai/ha, 0 to 100 scale, 0 no effect, 100 complete control, approx. 10 days
[12] = 31 g ai/ha, postemergence, visual rating, scale 0 to 100 (0 no effect, 100 complete control), 13 to 15 days

## FCc1cccc(Oc2ncc(Cl)cn2)c1-n1cc(Br)cn1 [Compound 83]
ragweed; 125 g ai/ha, postemergence
  Plant response rating (0 to 100), Ragweed: 70
ragweed; [4]
  Plant response rating, Ragweed: 40
ragweed; [5]
  Plant response rating, Ragweed: 60
Large (Lg) crabgrass [1]; 16 g ai/ha, postemergence, visual rating, scale 0 to 100 (0 no effect, 100 complete control), 13 to 15 days
  Crabgrass, Large plant response rating: 5
Large (Lg) crabgrass [1]; 125 g ai/ha, postemergence
  Plant response rating (0 to 100), Crabgrass, Large: 10
Large (Lg) crabgrass [1]; [4]
  Plant response rating, Crabgrass, Large: 5
Large (Lg) crabgrass [1]; [5]
  Plant response rating, Crabgrass, Large: 10
Wild oat; 125 g ai/ha, postemergence
  Plant response rating (0 to 100), Oat, Wild: 5
Wild oat; [4]
  Plant response rating, Oat, Wild: 0
Wild oat; [5]
  Plant response rating, Oat, Wild: 10
Italian ryegrass; 125 g ai/ha, postemergence
  Plant response rating (0 to 100), Ryegrass, Italian: 5
Italian ryegrass; [4]
  Plant response rating, Ryegrass, Italian: 0
Italian ryegrass; [5]
  Plant response rating, Ryegrass, Italian: 5
Oilseed rape; 125 g ai/ha, postemergence
  Plant response rating (0 to 100), Oilseed Rape: 80
Oilseed rape; [4]
  Plant response rating, Oilseed Rape: 50
Oilseed rape; [5]
  Plant response rating, Oilseed Rape: 55
Yellow nutsedge; [6]
  Nutsedge, Yellow plant response rating: 0
Yellow nutsedge; [7]
  Nutsedge, Yellow plant response rating: 0
Yellow nutsedge; [8]
  Nutsedge, Yellow plant response rating: 15
Yellow nutsedge; [9]
  Plant response rating, Nutsedge, Yellow: 0
pigweed; [10]
  Plant response rating, Pigweed: 100
pigweed; [11]
  Pigweed plant response rating: 100
lambsquarters; 125 g ai/ha, postemergence
  Plant response rating (0 to 100), Lambsquarters: 80
lambsquarters; [4]
  Plant response rating, Lambsquarters: 80
lambsquarters; [5]
  Plant response rating, Lambsquarters: 60
morningglory; 125 g ai/ha, postemergence
  Plant response rating (0 to 100), Morningglory: 85
morningglory; [4]
  Plant response rating, Morningglory: 65
morningglory; [5]
  Plant response rating, Morningglory: 75
rice
  Plant response rating, Rice: 0
barnyardgrass; [10]
  Plant response rating, Barnyardgrass: 60
barnyardgrass; [11]
  Barnyardgrass plant response rating: 90
Giant foxtail; [6]
  Foxtail, Giant plant response rating: 5
Giant foxtail; [7]
  Foxtail, Giant plant response rating: 100
Giant foxtail; [8]
  Foxtail, Giant plant response rating: 100
Giant foxtail; [9]
  Plant response rating, Foxtail, Giant: 75

## Fc1cccc(Oc2ncc(Cl)cn2)c1-n1cc(Br)cn1 [Compound 178, 2-[2-(4-bromo-1H-pyrazol-1-yl)-3-fluorophenoxy]-5-chloropyrimidine]
ragweed; [12]
  Ragweed plant response rating: 55
ragweed; Ambrosia artemisiifolia, post-emergence, 16 g ai/ha, postemergence, 0 is no effect, 100 is complete control, read-out: Plant response rating (0 to 100), Ragweed
  pest or weed control at 16 g/ha: 20%
ragweed; Ambrosia artemisiifolia, post-emergence, 125 g ai/ha, postemergence, visual rating, scale 0 to 100 (0 no effect, 100 complete control), read-out: Plant response rating, Ragweed
  pest or weed control at 125 g/ha: 65%
ragweed; Ambrosia artemisiifolia, post-emergence, Postemergence, 62 g ai/ha, scale 0 to 100 (0 no effect, 100 complete control), read-out: Plant response rating, Ragweed
  pest or weed control at 62 g/ha: 30%
Large (Lg) crabgrass [1]; Digitaria sanguinalis, post-emergence, 16 g ai/ha, postemergence, 0 is no effect, 100 is complete control, read-out: Plant response rating (0 to 100), Crabgrass, Large
  pest or weed control at 16 g/ha: 5%
Large (Lg) crabgrass [1]; Digitaria sanguinalis, post-emergence, 31 g ai/ha, postemergence, visual rating, scale 0 to 100 (0 no effect, 100 complete control), 13 to 15 days, read-out: Crabgrass, Large plant response rating
  pest or weed control at 31 g/ha: 10%
Large (Lg) crabgrass [1]; Digitaria sanguinalis, post-emergence, 125 g ai/ha, postemergence, visual rating, scale 0 to 100 (0 no effect, 100 complete control), read-out: Plant response rating, Crabgrass, Large
  pest or weed control at 125 g/ha: 10%
Large (Lg) crabgrass [1]; Digitaria sanguinalis, post-emergence, Postemergence, 62 g ai/ha, scale 0 to 100 (0 no effect, 100 complete control), read-out: Plant response rating, Crabgrass, Large
  pest or weed control at 62 g/ha: 5%
Large (Lg) crabgrass [2]; 125 g ai/ha
  Crabgrass, Large plant response rating: 90
Large (Lg) crabgrass [2]; Digitaria sanguinalis, post-emergence, 240 h, 500 g ai/ha, read-out: Plant response rating, Crabgrass, Large
  pest or weed control at 500 g/ha: 100%
Wild oat; [12]
  Oat, Wild plant response rating: 0
Wild oat; Avena fatua, post-emergence, 16 g ai/ha, postemergence, 0 is no effect, 100 is complete control, read-out: Plant response rating (0 to 100), Oat, Wild
  pest or weed control at 16 g/ha: 0%
Wild oat; Avena fatua, post-emergence, 125 g ai/ha, postemergence, visual rating, scale 0 to 100 (0 no effect, 100 complete control), read-out: Plant response rating, Oat, Wild
  pest or weed control at 125 g/ha: 30%
Wild oat; Avena fatua, post-emergence, Postemergence, 62 g ai/ha, scale 0 to 100 (0 no effect, 100 complete control), read-out: Plant response rating, Oat, Wild
  pest or weed control at 62 g/ha: 10%
Italian ryegrass; [12]
  Ryegrass, Italian plant response rating: 0
Italian ryegrass; Lolium multiflorum, post-emergence, 16 g ai/ha, postemergence, 0 is no effect, 100 is complete control, read-out: Plant response rating (0 to 100), Ryegrass, Italian
  pest or weed control at 16 g/ha: 0%
Italian ryegrass; Lolium multiflorum, post-emergence, 125 g ai/ha, postemergence, visual rating, scale 0 to 100 (0 no effect, 100 complete control), read-out: Plant response rating, Ryegrass, Italian
  pest or weed control at 125 g/ha: 20%
Italian ryegrass; Lolium multiflorum, post-emergence, Postemergence, 62 g ai/ha, scale 0 to 100 (0 no effect, 100 complete control), read-out: Plant response rating, Ryegrass, Italian
  pest or weed control at 62 g/ha: 0%
Oilseed rape; [12]
  Oilseed Rape plant response rating: 85
Oilseed rape; Brassica napus, post-emergence, 16 g ai/ha, postemergence, 0 is no effect, 100 is complete control, read-out: Plant response rating (0 to 100), Oilseed Rape
  plant injury at 16 g/ha: 70%
Oilseed rape; Brassica napus, post-emergence, 125 g ai/ha, postemergence, visual rating, scale 0 to 100 (0 no effect, 100 complete control), read-out: Plant response rating, Oilseed Rape
  plant injury at 125 g/ha: 98%
Oilseed rape; Brassica napus, post-emergence, Postemergence, 62 g ai/ha, scale 0 to 100 (0 no effect, 100 complete control), read-out: Plant response rating, Oilseed Rape
  plant injury at 62 g/ha: 90%
pigweed; 125 g ai/ha
  Pigweed plant response rating (0 to 100 scale): 100
pigweed; Amaranthus retroflexus, pre-emergence, 240 h, 500 g ai/ha, 0 to 100 scale where 0 is no effect and 100 is complete control, read-out: Pigweed plant response rating
  pest or weed control at 500 g/ha: 100%
lambsquarters; [12]
  Lambsquarters plant response rating: 80
lambsquarters; Chenopodium album, post-emergence, 16 g ai/ha, postemergence, 0 is no effect, 100 is complete control, read-out: Plant response rating (0 to 100), Lambsquarters
  pest or weed control at 16 g/ha: 70%
lambsquarters; Chenopodium album, post-emergence, 125 g ai/ha, postemergence, visual rating, scale 0 to 100 (0 no effect, 100 complete control), read-out: Plant response rating, Lambsquarters
  pest or weed control at 125 g/ha: 98%
lambsquarters; Chenopodium album, post-emergence, Postemergence, 62 g ai/ha, scale 0 to 100 (0 no effect, 100 complete control), read-out: Plant response rating, Lambsquarters
  pest or weed control at 62 g/ha: 85%
corn; 125 g ai/ha
  Corn plant response rating (crop injury, 0 = no effect, 100 = complete kill) at 125 g/ha: 0%
corn; 500 g ai/ha, read-out: Corn plant response rating
  plant injury at 500 g/ha: 30%
morningglory; [12]
  Morningglory plant response rating: 70
morningglory; Ipomoea, post-emergence, 16 g ai/ha, postemergence, 0 is no effect, 100 is complete control, read-out: Plant response rating (0 to 100), Morningglory
  pest or weed control at 16 g/ha: 10%
morningglory; Ipomoea, post-emergence, 125 g ai/ha, postemergence, visual rating, scale 0 to 100 (0 no effect, 100 complete control), read-out: Plant response rating, Morningglory
  pest or weed control at 125 g/ha: 65%
morningglory; Ipomoea, post-emergence, Postemergence, 62 g ai/ha, scale 0 to 100 (0 no effect, 100 complete control), read-out: Plant response rating, Morningglory
  pest or weed control at 62 g/ha: 85%
rice; Oryza sativa, read-out: Plant response rating, Rice
  plant injury at 250 g/ha: 0%
barnyardgrass; Echinochloa crus-galli, pre-emergence, 240 h, 125 g ai/ha, 0 to 100 scale where 0 is no effect and 100 is complete control, read-out: Plant response rating, Barnyardgrass
  pest or weed control at 125 g/ha: 90%
barnyardgrass; Echinochloa crus-galli, pre-emergence, 240 h, 500 g ai/ha, 0 to 100 scale where 0 is no effect and 100 is complete control, read-out: Barnyardgrass plant response rating
  pest or weed control at 500 g/ha: 100%
Large (Lg) crabgrass [3]; 125 g ai/ha, read-out: Plant response rating, Crabgrass, Large
  pest or weed control at 125 g/ha: 100%
Large (Lg) crabgrass [3]; 500 g ai/ha, read-out: Crabgrass, Large plant response rating
  pest or weed control at 500 g/ha: 100%
